Laboratory results taken from PMC11706420, “Establishing a physiologically based pharmacokinetic framework for aldehyde oxidase and dual aldehyde oxidase‐CYP substrates” (CPT: Pharmacometrics & Systems Pharmacology, 2024).
Like-named read-outs stand apart in the source and are kept apart here.

Columns and labels:
[1] = Cytosolic binding (fucyt), human liver cytosol with AO inhibitor; conditions: 1 mg/mL; n=3, mean (CV%)
[2] = Cytosolic binding (fucyt), dog liver cytosol; conditions: 1 mg/mL, n=3, mean (CV%)
Procedure: In vitro data were generated to inform the PBPK models of the selected drugs (Supplement 1 in Appendix S1; Table S1). Subcellular fractions of human and dog liver were sourced from XenoTech (Kansas City, KS, USA). In vitro CLint,u was measured with substrate depletion and binding assays for all compounds (1 μM) in human liver microsomes (HLM; 0.25–0.5 mg/mL) and HLC (1 mg/mL). HLC pool was prepared from livers perfused with Custodiol HTK (histidine tryptophan ketoglutarate) solution, marketed as having preserved “high AO/XO activity.”[15] Dog liver cytosols (DLC; 1 mg/mL) were used to investigate cytosolic binding in the absence of AO. Routine in vitro assays were used to quantify unbound fraction in plasma (fup), blood‐to‐plasma ratio (B/P), and apparent permeability (Papp) through transwell transport assays utilizing canine Mdr1 knockout and empty vector‐transfected MDCKI cells.
𝐶𝐿 = 𝑘 × 𝑣𝑜𝑙𝑢𝑚𝑒 𝑜𝑓 𝑖𝑛𝑐𝑢𝑏𝑎𝑡𝑖𝑜𝑛 (Eq S9)
Cytosolic binding (fucyt):
The fraction unbound in human liver cytosols (fucyt) of compounds was determined by equilibrium
dialysis using the RED device (Thermo Fisher, Waltham MA, USA) with a molecular weight cut-off of
8 kDa. Dog or human liver cytosols at 1 mg/mL with 1 µM of compounds (300 µL, n=3 per compound)
were added to the donor compartment in 100 mM potassium phosphate buffer with final DMSO
liver cytosols to inactivate AO, whereas dog was used as a natural AO knock-out model. 500 µL of 100
mM potassium phosphate buffer (pH 7.35) was added to the receiver chamber for each replicate.
RED device was then sealed with an adhesive foil and incubated on an orbital shaker at 450 rpm (VWR
Symphony) at 37°C with 5 % CO2. After reaching equilibrium for 4 hours, aliquots from both the
receiver (30µL) and donor (30µL) sides of the membrane were matrix matched, and then quenched with
180 µL of cold ACN with 100 nM propranolol (internal standard). The samples were placed in a
Beckman Coulter Allegra x 12R Centrifuge (Brea, CA) for 15 minutes at 3700 rpm. After centrifugation,
the supernatant of each sample was diluted 1:2 and analyzed by LC -MS/ MS. Matrix stability and
recovery were assessed in triplicates and followed identical sample preparation.
Microsomal binding (fumic):
(§1) The fraction unbound in human liver microsomes (fumic) of compounds was determined by equilibrium
(§2) dialysis using the high-throughput dialysis method 2 using membranes from HTDialysis, LLC (Gales
(§3) Ferry, CT) having 12 to 14 kDa molecular mass cutoff. Deactivated HLM (by leaving the HLM
(§4) incubation media on the bench overnight at ambient temperature) at 0.25 mg/mL with 2 µM of
(§5) compounds (a final concentration of DMSO as 1%) was added to the donor compartment in 50 mM
(§6) phosphate buffer containing 1 M MgCl2. (150 µL, n=4 per compound). 150 µL of Dulbecco’s PBS
(§7) buffer (pH 7.4) was added to the receiver chamber for each replicate. After reaching equilibrium for 6
(§8) h on a plate shaker (200 rpm) at 37°C in a humidified CO2 incubator (5% CO2), aliquots from both the
(§9) receiver (45 µL) and donor (15 µL) sides of the membrane were matrix matched and analyzed by LC-
(§10) MS/MS. Matrix stability (n=3) and % of recovery (n=4) were assessed.
(§11) Data analysis for binding in microsomal and cytosolic incubations:
(§12) Fraction unbound in microsomal (fumic) and cytosolic (fucyt) incubations were calculated via Eq. S10-11
(§13) based on the ratio of the peak areas of analyte and internal standard.
(§14) 𝑃𝑒𝑎𝑘 𝐴𝑟𝑒𝑎 𝑅𝑎𝑡𝑖𝑜 = (𝑃𝑒𝑎𝑘 𝐴𝑟𝑒𝑎 𝑜𝑓 𝐴𝑛𝑎𝑙𝑦𝑡𝑒)/(𝑃𝑒𝑎𝑘 𝐴𝑟𝑒𝑎 𝑜𝑓 𝐼𝑛𝑡𝑒𝑟𝑛𝑎𝑙 𝑆 tan 𝑑 𝑎𝑟𝑑) (Eq. S10)
(§15) 𝑓𝑢𝑚𝑖𝑐 𝑜𝑟 𝑓𝑢𝑐𝑦𝑡 = (𝑃𝑒𝑎𝑘 𝐴𝑟𝑒𝑎 𝑅𝑎𝑡𝑖𝑜 𝑖𝑛 𝑟𝑒𝑐𝑒𝑖𝑣𝑒𝑟 𝑐𝑜𝑚𝑝𝑎𝑟𝑡𝑚𝑒𝑛𝑡)/
(§16) concentration (0.5 mg/mL) using Hallifax and Houston algorithm (Hallifax and Houston, 2006). Matrix
(§17) stability and recovery were assessed using Eq. S12 and Eq. S13.
(§18) %𝑠𝑡𝑎𝑏𝑖𝑙𝑖𝑡𝑦 = (𝐴𝑣𝑒𝑟𝑎𝑔𝑒 𝑝𝑒𝑎𝑘 𝑎𝑟𝑒𝑎 𝑖𝑛 𝑚𝑎𝑡𝑟𝑖𝑥 𝑎𝑡 𝑡ℎ𝑒 𝑒𝑛𝑑 𝑜𝑓 𝑖𝑛𝑐𝑢𝑏𝑎𝑡𝑖𝑜𝑛)/
(§19) (𝐴𝑣𝑒𝑟𝑎𝑔𝑒 𝑝𝑒𝑎𝑘 𝑎𝑟𝑒𝑎 𝑎𝑡 𝑇 = 0) × 100 (Eq. S12)
%𝑟𝑒𝑐𝑜𝑣𝑒𝑟𝑦 = (𝐴 + 𝐵)/𝐶 × 100 (Eq. S13)
(§20) where A is the average peak area ratio of all matrix samples, B is the average peak area ratio

[3] = cited from earlier work; for logP: octanol-water, 12 (per cell)
[4] = cited from earlier work; for fmCYP3A4: ref suppl. 8-12; for fmAO: ref suppl. 8-13
[5] = cited from earlier work
[6] = Microsomal clearance incubations (substrate depletion); conditions: both, human
Procedure: Subcellular fractions of human and dog liver were sourced from XenoTech (Kansas City, KS, USA). In vitro CLint,u was measured with substrate depletion and binding assays for all compounds (1 μM) in human liver microsomes (HLM; 0.25–0.5 mg/mL) and HLC (1 mg/mL).
Microsomal clearance incubations (CLint):
Human liver microsomes were stored at −80°C and rapidly thawed just before use at 37°C.
All compounds were mixed with HLM and 50 mM
phosphate buffer. 450 µL of the mixture was added to 1.2mL cluster tubes in a 96-well block in
duplicate and warmed in a water bath (Thermo Scientific Precision™,Waltham MA, USA ) at 37°C for
5 min. Reactions were initiated by the addition of 50 µL from 10 mM of NADPH stock in 50 mM
phosphate buffer (final NADPH concentration, 1 mM). The final incubation contained 1 µM test
compound in 500 µL total volume with 0.02% DMSO. At each time point (5, 10, 20, 30, and 60 min),
60 µL of incubation mixture was added to 120 uL of quench solutions (MeOH:ACN, 1:1, v:v)
containing internal standard (0.5 µM carbutamide). The mixture was centrifuged at 3000 rpm for 20
min (Eppendorf 5810R, Hamburg, Germany). Supernatant was injected to HPLC-MS/MS with for data
Data analysis for substrate depletion assays:
Data from the microsomal and cytosolic incubations were analyzed using GraFit 7 (Erithacus Software,
Horley, UK) to determine the elimination rate constant (k), which was used in CLint calculation (Eq.
S9). A nonlinear single exponential fit was used for all compounds.
𝐶𝐿 = 𝑘 × 𝑣𝑜𝑙𝑢𝑚𝑒 𝑜𝑓 𝑖𝑛𝑐𝑢𝑏𝑎𝑡𝑖𝑜𝑛 (Eq S9)

[7] = Plasma protein binding (fup), rapid equilibrium dialysis; assay type: in vitro ADME, human
Procedure: (differing in 2 donors) were used for activity and microsomal binding assays, respectively.
The human biological samples were sourced ethically, and their research use was in accord with the terms of the informed consents under an IRB/EC approved protocol.
Determination of plasma protein binding (fup):
Human plasma (male, K2EDTA) was obtained from BioIVT (Baltimore, MD, USA). A pool of n=20 donors was prepared in-house (batch: 16062022). The plasma protein binding of compounds in human was determined by equilibrium dialysis using the rapid equilibrium dialysis (RED) device (Thermo […]
Frozen blank human plasma […]
solution to a final concentration of 1 µM (0.5 % DMSO). 300 µ L of the fortified plasma samples were subjected to dialysis against 500 µL PBS buffer at pH 7.4, for 6 h at 37 °C in triplicate. After dialysis, 200 µl aliquots of the buffer and the plasma compartments were transferred into micronic tubes. To minimize the potential for non -specific binding to the micronic tubes the buffer sam ples were collected on to 50µl of 10 % bovine serum albumin (BSA). For the assessment of test compound stability in plasma, 300 µl aliquots of the spiked plasma solutions were transferred into micronic tubes and incubated in an air heated incubator at 37°C without shaking for 4 and 20 hours. The remaining spiked protein solutions were frozen and used to measure the initial start concentration ( C0) to calculate the recovery. Sample analysis was achieved by LC -MS/MS and absolute quantification of the drug lev els in the buffer and plasma compartments was achieved via a matrix matched calibration curve (in the presence of an internal standard tolbutamide). All buffer and plasma sample sets were matrix matched […]
for analysis. The samples were centrifuged (15 minutes, 3400 g) and supernatants were transferred to a fresh plate for analysis. The unbound concentration (Cu), and the total concentration (CED) were determined by measurement of the concentration of the test compound in the buffer and plasma compartments of the dialysis cells, respectively. The fraction unbound was calculated using Eq. S1.
fuplasma = Cu/CED (Eq. S1)
The percentage recovery was calculated as the ratio of the sum of the amount in the buffer (Au) and plasma (AED) compartments to the amount at time zero (A0) (Eq. S2). The percentage stability was calculated as the ratio of the concentration of the test compound at the end of the incubation (C t) time […]
% recovery = (( Au + AED ) / A0 ) × 100 (Eq. S2)

[8] = In vitro permeability (Papp), transwell transport; conditions: dog, MDCK
[9] = Microsomal binding (fumic); conditions: for fumic (PBPK input): at incubation protein concentration (0.25 or 0.5 mg/mL)
Procedure: Microsomal binding (fumic):
as §1, §2, §3, §4, §5, §6, §7, §8, §9, §10, §11, §12, §13, §14, §15, §16, §17, §18, §19
%𝑟𝑒𝑐𝑜𝑣𝑒𝑟𝑦 = (𝐴 + 𝐵)/𝐶 × 100 (Eq. S13)
as §20
of all buffer samples multiplied with the buffer dilution factor and C is the average peak area ratio of

[10] = cited from earlier work; remark: listed apart in the source
CYP3A4 = conditions: cited from earlier work
[11] = Blood-to-plasma ratio (B/P); assay type: in vitro ADME, human
Text: Determination of blood to plasma ratio (B/P):
Whole human blood was collected on the day of the experiment from healthy volunteers. The collection protocol was approved by an independent ethical committee and all donors signed the consent forms. All samples were registered in the Janssen Biobank.
Prewarmed blood aliquots were mixed with the compounds (final concentrations shown in Suppl. Table 5) with a final organic DMSO solvent concentration of ≤0.1% (v/v). After gentle mixing to avoid haemolysis, blood aliquots were immediately collected for protein precipitation (1:1:8 ratios of blood sample:DMSO:ACN) and centrifugation (10 minutes, 3800 g) and the supernatant was used as a 0-minute reference blood sample. At the same time, blood aliquots were taken and centrifuged (10 minutes, 1200 g) to obtain the plasma portion. Plasma aliquots were then immediately collected for protein precipitation (1:1:8 ratios of plasma sample:DMSO:ACN) and centrifugation (10 minutes, 3800 g) and the supernatant was used as a 0-minute reference plasma sample. The remainder of the blood fraction was incubated (30 min at 37 °C). Following incubation, 30 -minute blood and plasma samples were taken and prepared as described for the reference 0-minute samples.
Mean compound concentration values (n=3 replicates) were calculated for both the blood and plasma samples. A blood-to-plasma concentration ratio was then determined using Eq. S4. […]

[12] = design: method as in earlier work; conditions: menadione 100 µM; ref 45 (suppl.); cited from earlier work
[13] = observed (mass balance), min-max where uncertain
[14] = iv: zaleplon 5 mg (M), observed, ref suppl. 22
[15] = iv: zaleplon 5 (F), ziprasidone 5, zoniporide 80 mg, observed, ref suppl. 22,23,13
[16] = observed, ref Table S2/S3 studies
[17] = oral: capmatinib 200, idelalisib 150, lenvatinib 10, zaleplon 5 (F), ziprasidone 20 mg, observed mean or geomean (CV%), ref suppl. 8,14,16,19,22,23
[18] = oral: capmatinib 200, idelalisib 150, lenvatinib 10, zaleplon 5 (F), ziprasidone 20 mg, observed, ref suppl. 8,14,16,19,22,23
[19] = oral: capmatinib 600, zaleplon 5 (M) mg, observed, ref suppl. 8,22
[20] = corrected with Hallifax&Houston algorithm
[21] = DDI study with rifampicin (capmatinib 400, idelalisib 150, lenvatinib 24 mg) or carbamazepine (ziprasidone 20 mg), observed, ref suppl. 15,18,21,25
[22] = with itraconazole (capmatinib 200 mg) or ketoconazole (idelalisib 400, lenvatinib 5, ziprasidone 40 mg), observed, ref suppl. 15,10,17,20,24
[23] = with rifampicin (capmatinib 400, idelalisib 150, lenvatinib 24 mg) or carbamazepine (ziprasidone 20 mg), observed, ref suppl. 15,18,21,25

CCN(C(C)=O)c1cccc(-c2ccnc3c(C#N)cnn23)c1 [Zaleplon]
fucyt, Human Liver Cytosol with 5 uM Raloxifene [1]: 0.846 (1.87)
fucyt, Human Liver Cytosol with 50 uM Hydralazine [1]: 1 (1.10)
fucyt, Dog Liver Cytosol ([2]; no AO inhibitor): 1
fucyt, Dog Liver Cytosol with 50 uM Hydralazine [2]: 0.84 (3.63)
logP [3]: 1.3[12]
fmCYP3A4 [4, 13]: 26-43
fmCYP3A4 (maximum) ([4]; ref suppl. 9-11): 0.43
fmCYP3A4 (minimum) ([4]; ref suppl. 9-11): 0.26
AUCinf [5, 14]: 71.7 (12) ng.h/mL
Cmax [5, 14]: 61.4 (26.4) ng/mL
AUCinf [5, 15]: 100 (24) ng.h/mL
Cmax [5, 15]: 62.7 (23.8) ng/mL
CLRenal [5, 16]: Negligible
Cmax [5, 17]: 14.4 (38.9) ng/mL
AUCinf [5, 18]: 31.4 (57.3) ng.h/mL
AUCinf [5, 19]: 22.5 (45.8) ng.h/mL
Cmax [5, 19]: 14.5 (45.5) ng/mL
microsomal CLint at 1 µM ([6]; microsomes): 5.95 µL/min/mg
% Stability in plasma ([7]; 37°C, n=1, at 20h): 104%
Papp A→B at 120 min, 5 µM [8]: 38.9 ×10⁻⁶ cm/s
Papp B→A at 120 min, 5 µM [8]: 32.5 ×10⁻⁶ cm/s
fumic (PBPK input) [9]: 0.964
Predicted fumic for 1 mg/mL [9, 20]: 0.932
HH CLint, non-AO ([10]; with 25 μM hydralazine): 0.8[21] μL/min/10^6 hepatocytes

O=C1Cc2cc(CCN3CCN(c4nsc5ccccc45)CC3)c(Cl)cc2N1 [Ziprasidone]
fucyt, Human Liver Cytosol with 5 uM Raloxifene [1]: 0.337 (4.82)
fucyt, Human Liver Cytosol with 50 uM Hydralazine [1]: 0.356 (2.53)
fucyt, Dog Liver Cytosol with 50 uM Hydralazine [2]: 0.288 (3.81)
pKa1 ([3]; 47 (per cell)): 8.24[12]
pKa2 ([3]; 47 (per cell)): 6.31[12]
logP [3]: 4.53[12]
fmAO ([4]; measured in excreta): 0.67
fmAO ([4]; observed (mass balance), min-max where uncertain, Table S10): 67
fmCYP3A4 [4, 13]: 33
fmCYP3A4 [4]: 0.33
Cmax, control (CYP3A4; DDI study with itraconazole (capmatinib 200 mg) or ketoconazole (idelalisib 400, lenvatinib 5, ziprasidone 40 mg), observed geomean (CV%), ref suppl. 15,10,17,20,24): 89 (30) ng/mL
AUCinf, control (CYP3A4; DDI study with itraconazole (capmatinib 200 mg) or ketoconazole (idelalisib 400, lenvatinib 5, ziprasidone 40 mg), observed, ref suppl. 15,10,17,20,24): 899 (20) ng.h/mL
AUCinf, control (AUC0-12 for ziprasidone) (CYP3A4; [21]): 495 (26) ng.h/mL
Cmax, control (CYP3A4; [21]): 79 (24) ng/mL
AUCinf, interaction (CYP3A4; [22]): 1199 (18) ng.h/mL
Cmax, interaction (CYP3A4; [22]): 119 (25) ng/mL
AUCinf, interaction (AUC0-12 for ziprasidone) (CYP3A4; [23]): 285 (28) ng.h/mL
Cmax, interaction (CYP3A4; [23]): 48 (27) ng/mL
CLiv/oral [CV%] ([5]; i.v., ref Table S2/S3 studies): 23.04 [14] (i.v.) L/h
AUCinf [5, 15]: 217 (20) ng.h/mL
Cmax [5, 15]: 83 (21) ng/mL
CLRenal [5, 16]: Negligible
Cmax [5, 17]: 64 (28) ng/mL
AUCinf [5, 18]: 514 (27) ng.h/mL
microsomal CLint at 1 µM ([6]; liver microsomes): 71.9 µL/min/mg
B/P ([11]; 50 ng/mL): 0.44
B/P ([11]; 1000 ng/mL): 0.47
B/P (assumed PBPK input) ([11]; assumed from measured 0.455): 0.55
% Stability in plasma ([7]; male, human, plasma, 20 h, 1 µM): 96.2%
Papp A→B at 120 min, 5 µM [8]: 3.15 ×10⁻⁶ cm/s
Papp B→A at 120 min, 5 µM [8]: 0.843 ×10⁻⁶ cm/s
efflux ratio at 120 min, 5 µM [8]: 0.268
fumic (PBPK input) [9]: 0.210
Predicted fumic for 0.5 mg/mL [9, 20]: 0.118
Predicted fumic for 1 mg/mL [9, 20]: 0.063
HH CLint (no reaction phenotyping) ([10]; without inhibitor): 21.8[5], ^f μL/min/10^6 hepatocytes

CC1=CC(=O)c2ccccc2C1=O [menadione]
inhibition of ziprasidone reduction [12]: 90%
